Measured values: PubChem BioAssay AID328 (DTP/NCI, 2004)
Several values for one entry are separate records, joined by “and”; a condition that tells them apart may be missing. Equal values may be shown once. Toxic doses and inconclusive results are not listed.

Tested on: BDF1 mice, P388 leukemia ip, median survival T/C
Test: NCI In Vivo Anticancer Drug Screen. Data for tumor model P388 Leukemia (intraperitoneal) in B6D2F1 (BDF1) mice
Conditions: endpoint: median survival time, higher = longer survival
In short: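 Compound-treated tumour-bearing mice were compared with vehicle-treated controls. Survival was recorded, and the value is the treated-group measurement divided by the control-group measurement (T/C).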

[1] = dose: 100.0 mg/kg/injection, schedule: Q01DX009 (ip), vehicle: saline
[2] = dose: 200.0 mg/kg/injection, schedule: Q01DX009 (ip), vehicle: saline
[3] = dose: 400.0 mg/kg/injection, schedule: Q01DX009 (ip), vehicle: saline
[4] = dose: 60.0 mg/kg/injection, schedule: Q01DX009 (ip), vehicle: saline with Tween-80
[5] = dose: 100.0 mg/kg/injection, schedule: Q01DX009 (ip), vehicle: Klucel (hydroxypropylcellulose) (HPC)
[6] = dose: 100.0 mg/kg/injection, schedule: Q04DX003 (ip), vehicle: Klucel (hydroxypropylcellulose) (HPC)
[7] = dose: 200.0 mg/kg/injection, schedule: Q01DX009 (ip), vehicle: Klucel (hydroxypropylcellulose) (HPC)
[8] = dose: 200.0 mg/kg/injection, schedule: Q04DX003 (ip), vehicle: Klucel (hydroxypropylcellulose) (HPC)
[9] = dose: 50.0 mg/kg/injection, schedule: Q01DX009 (ip), vehicle: saline

Question: `COc1ccc(C=NCCc2ccc(OC)c(OC)c2)cc1OC` was tested. Which T/C [1] did it give?
Answer: 97 % of control

Question: What about the T/C [2] of the same compound?
Answer: 97 % of control

Question: What about the T/C [3] of the same compound?
Answer: 105 % of control

Question: Which results are given for `CC1(C)N=C(N)N=C(N)N1c1cccc(CCCCOc2ccccc2)c1`?
Answer: T/C (dose: 8.0 mg/kg/injection, schedule: Q01DX009 (ip), vehicle: saline with Tween-80): 150 % of control; T/C (dose: 12.0 mg/kg/injection, schedule: Q01DX009 (ip), vehicle: saline with Tween-80): 150 % of control; T/C (dose: 18.0 mg/kg/injection, schedule: Q01DX009 (ip), vehicle: saline with Tween-80): 170 % of control

Question: Which T/C (dose: 26.0 mg/kg/injection, schedule: Q01DX009 (ip), vehicle: saline with Tween-80) does the source give for `COC(=O)C(N)CCCCNc1ccc2c(cc1=O)C(NC(C)=O)CCc1cc(OC)c(OC)c(OC)c1-2` (centres undefined) here?
Answer: 124 % of control

Question: And the T/C (dose: 40.0 mg/kg/injection, schedule: Q01DX009 (ip), vehicle: saline with Tween-80)?
Answer: 118 % of control

Question: And the T/C [4]?
Answer: 119 % of control

Question: What about the T/C (dose: 90.0 mg/kg/injection, schedule: Q01DX009 (ip), vehicle: saline with Tween-80) of the same compound?
Answer: 117 % of control

Question: And the T/C (dose: 200.0 mg/kg/injection, schedule: Q01DX009 (ip), vehicle: saline with Tween-80)?
Answer: 170 % of control

Question: What about the T/C (dose: 300.0 mg/kg/injection, schedule: Q01DX009 (ip), vehicle: saline with Tween-80) of the same compound?
Answer: 159 % of control

Question: For `O`, which T/C (dose: 100.0 mg/kg/injection, schedule: Q01DX001 (ip), vehicle: saline) is on record?
Answer: 95 % of control

Question: And the T/C (dose: 100.0 mg/kg/injection, schedule: Q04DX003 (ip), vehicle: saline)?
Answer: 105 % of control

Question: What about the T/C (dose: 200.0 mg/kg/injection, schedule: Q01DX001 (ip), vehicle: saline) of the same compound?
Answer: 90 % of control

Question: And the T/C (dose: 200.0 mg/kg/injection, schedule: Q04DX003 (ip), vehicle: saline)?
Answer: 95 % of control

Question: What about the T/C (dose: 400.0 mg/kg/injection, schedule: Q01DX001 (ip), vehicle: saline) of the same compound?
Answer: 90 % of control

Question: What about the T/C (dose: 400.0 mg/kg/injection, schedule: Q04DX003 (ip), vehicle: saline) of the same compound?
Answer: 105 % of control

Question: With `CCOC(=O)c1c[nH]c(=S)n1C` as the compound, how does the T/C [5] read?
Answer: 95 % of control

Question: What about the T/C [6] of the same compound?
Answer: 95 % of control

Question: What about the T/C [7] of the same compound?
Answer: 104 % of control

Question: What about the T/C [8] of the same compound?
Answer: 91 % of control

Question: Which T/C [5] does the source give for `CC(C)(C)c1cc(CO)cc(C(C)(C)C)c1O` here?
Answer: 107 % of control

Question: What about the T/C [6] of the same compound?
Answer: 113 % of control

Question: And the T/C [7]?
Answer: 103 % of control

Question: And the T/C [8]?
Answer: 118 % of control

Question: And the T/C (dose: 400.0 mg/kg/injection, schedule: Q01DX009 (ip), vehicle: Klucel (hydroxypropylcellulose) (HPC))?
Answer: 111 % of control

Question: What about the T/C (dose: 400.0 mg/kg/injection, schedule: Q04DX003 (ip), vehicle: Klucel (hydroxypropylcellulose) (HPC)) of the same compound?
Answer: 100 % of control

Question: Which results are given for `OC1(c2ccncc2)C=CCC1` (centres undefined)?
Answer: T/C (dose: 25.0 mg/kg/injection, schedule: Q04DX002 (ip), vehicle: saline with Tween-80): 100 % of control; T/C (dose: 50.0 mg/kg/injection, schedule: Q04DX002 (ip), vehicle: saline with Tween-80): 106 % of control; T/C (dose: 100.0 mg/kg/injection, schedule: Q04DX002 (ip), vehicle: saline with Tween-80): 97 % of control

Question: Which results are given for `CNC(=O)C(C)C1C(=O)/C(=C(O)/C=C/C(C)=C\C(C)C2OC3(C)OC(C=CC34CO4)C2C)C(=O)N1C1CCC(O)C(C)O1` (centres undefined)?
Answer: T/C [9]: 100 % of control; T/C [7]: 109 % of control

Question: Which results are given for `O=C(CC(O)(C(F)(F)F)C(F)(F)F)c1cccc(Cl)c1`?
Answer: T/C (dose: 100.0 mg/kg/injection, schedule: Q01DX001 (ip), vehicle: saline with Tween-80): 113 % of control; T/C (dose: 200.0 mg/kg/injection, schedule: Q01DX001 (ip), vehicle: saline with Tween-80): 113 % of control; T/C (dose: 400.0 mg/kg/injection, schedule: Q01DX001 (ip), vehicle: saline with Tween-80): 118 % of control

Question: How did the T/C [9] turn out when `Cc1nnc2ncccn12` was run?
Answer: 96 % of control and 102 % of control and 106 % of control

Question: What about the T/C [1] of the same compound?
Answer: 97 % of control and 102 % of control (2×)

Question: What about the T/C [2] of the same compound?
Answer: 115 % of control

Question: And the T/C [3]?
Answer: 93 % of control

Question: Which results are given for `CC1=NN(c2ccccc2)C(=O)C1=Nc1c(C)[nH]n(-c2ccccc2)c1=O`?
Answer: T/C (dose: 30.0 mg/kg/injection, schedule: Q01DX009 (ip), vehicle: saline with Tween-80): 96 % of control; T/C [4]: 91 % of control

Question: For `ClCC1CCN(CCc2ccccc2)CC1`, which T/C [9] is on record?
Answer: 95 % of control

Question: And the T/C [1]?
Answer: 99 % of control
